Results from US8192962B2, “Processes for detecting toxic substances” (Daikin Industries, Ltd., priority 2001, dated 2012).

Test system: Detoxification protein genes
Test: DNA chip mRNA expression in yeast, detoxification protein genes (Table 8)
Format: cell-based, Saccharomyces cerevisiae S288C
Method in brief: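 Chemical exposure: 2 h, log-phase S. cerevisiae S288C, YPD, 25° C., dose set to inhibit growth without death. Profiling: mRNA labeled by reverse transcription with Cy3- or Cy5-dUTP, hybridized to whole-genome array. Output: fluorescence ratio against untreated culture.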

Cl[C@H]1[C@H](Cl)[C@@H](Cl)[C@@H](Cl)[C@H](Cl)[C@H]1Cl [(7), γ-hexachlorocyclohexane]
The level of expressed mRNA in the presence of chemical substance/The level of expressed mRNA in the absence of chemical substance (yeast gene YBL064C): 2.5
The level of expressed mRNA in the presence of chemical substance/The level of expressed mRNA in the absence of chemical substance (yeast gene YBR008C): 0.9
The level of expressed mRNA in the presence of chemical substance/The level of expressed mRNA in the absence of chemical substance (yeast gene YBR145W): 58.8
The level of expressed mRNA in the presence of chemical substance/The level of expressed mRNA in the absence of chemical substance (yeast gene YBR244W): 0.6
The level of expressed mRNA in the presence of chemical substance/The level of expressed mRNA in the absence of chemical substance (yeast gene YBR293W): 0.9
The level of expressed mRNA in the presence of chemical substance/The level of expressed mRNA in the absence of chemical substance (yeast gene YCL035C): 2.7
The level of expressed mRNA in the presence of chemical substance/The level of expressed mRNA in the absence of chemical substance (yeast gene YCL069W): 1.4
The level of expressed mRNA in the presence of chemical substance/The level of expressed mRNA in the absence of chemical substance (yeast gene YCR083W): 1.8
The level of expressed mRNA in the presence of chemical substance/The level of expressed mRNA in the absence of chemical substance (yeast gene YDL100C): 1.6
The level of expressed mRNA in the presence of chemical substance/The level of expressed mRNA in the absence of chemical substance (yeast gene YDL168W): 1.1
The level of expressed mRNA in the presence of chemical substance/The level of expressed mRNA in the absence of chemical substance (yeast gene YDR256C): 0.6
The level of expressed mRNA in the presence of chemical substance/The level of expressed mRNA in the absence of chemical substance (yeast gene YDR453C): 1.0
The level of expressed mRNA in the presence of chemical substance/The level of expressed mRNA in the absence of chemical substance (yeast gene YDR513W): 1.6
The level of expressed mRNA in the presence of chemical substance/The level of expressed mRNA in the absence of chemical substance (yeast gene YDR538W): 1.2
The level of expressed mRNA in the presence of chemical substance/The level of expressed mRNA in the absence of chemical substance (yeast gene YEL027W): 0.8
The level of expressed mRNA in the presence of chemical substance/The level of expressed mRNA in the absence of chemical substance (yeast gene YEL065W): 4.3
The level of expressed mRNA in the presence of chemical substance/The level of expressed mRNA in the absence of chemical substance (yeast gene YER185W): 1.1
The level of expressed mRNA in the presence of chemical substance/The level of expressed mRNA in the absence of chemical substance (yeast gene YFL050C): 0.8
The level of expressed mRNA in the presence of chemical substance/The level of expressed mRNA in the absence of chemical substance (yeast gene YGL013C): 0.9
The level of expressed mRNA in the presence of chemical substance/The level of expressed mRNA in the absence of chemical substance (yeast gene YGL254W): 1.3
The level of expressed mRNA in the presence of chemical substance/The level of expressed mRNA in the absence of chemical substance (yeast gene YGR088W): 0.8
The level of expressed mRNA in the presence of chemical substance/The level of expressed mRNA in the absence of chemical substance (yeast gene YGR138C): 0.7
The level of expressed mRNA in the presence of chemical substance/The level of expressed mRNA in the absence of chemical substance (yeast gene YGR197C): 1.3
The level of expressed mRNA in the presence of chemical substance/The level of expressed mRNA in the absence of chemical substance (yeast gene YGR209C): 1.7
The level of expressed mRNA in the presence of chemical substance/The level of expressed mRNA in the absence of chemical substance (yeast gene YGR224W): 0.4
The level of expressed mRNA in the presence of chemical substance/The level of expressed mRNA in the absence of chemical substance (yeast gene YHL040C): 4.0
The level of expressed mRNA in the presence of chemical substance/The level of expressed mRNA in the absence of chemical substance (yeast gene YHL047C): 16.8
The level of expressed mRNA in the presence of chemical substance/The level of expressed mRNA in the absence of chemical substance (yeast gene YHR008C): 0.7
The level of expressed mRNA in the presence of chemical substance/The level of expressed mRNA in the absence of chemical substance (yeast gene YHR048W): 0.8
The level of expressed mRNA in the presence of chemical substance/The level of expressed mRNA in the absence of chemical substance (yeast gene YHR053C): 1.2
The level of expressed mRNA in the presence of chemical substance/The level of expressed mRNA in the absence of chemical substance (yeast gene YHR055C): 1.1
The level of expressed mRNA in the presence of chemical substance/The level of expressed mRNA in the absence of chemical substance (yeast gene YIR002C): 1.3
The level of expressed mRNA in the presence of chemical substance/The level of expressed mRNA in the absence of chemical substance (yeast gene YIR038C): 2.0
The level of expressed mRNA in the presence of chemical substance/The level of expressed mRNA in the absence of chemical substance (yeast gene YJL101C): 1.0
The level of expressed mRNA in the presence of chemical substance/The level of expressed mRNA in the absence of chemical substance (yeast gene YJR104C): 1.1
The level of expressed mRNA in the presence of chemical substance/The level of expressed mRNA in the absence of chemical substance (yeast gene YKL026C): 2.5
The level of expressed mRNA in the presence of chemical substance/The level of expressed mRNA in the absence of chemical substance (yeast gene YKL064W): 1.1
The level of expressed mRNA in the presence of chemical substance/The level of expressed mRNA in the absence of chemical substance (yeast gene YKR066C): 0.5
The level of expressed mRNA in the presence of chemical substance/The level of expressed mRNA in the absence of chemical substance (yeast gene YKR105C): 1.0
The level of expressed mRNA in the presence of chemical substance/The level of expressed mRNA in the absence of chemical substance (yeast gene YKR106W): 0.9
The level of expressed mRNA in the presence of chemical substance/The level of expressed mRNA in the absence of chemical substance (yeast gene YLL028W): 1.0
The level of expressed mRNA in the presence of chemical substance/The level of expressed mRNA in the absence of chemical substance (yeast gene YLL057C): 1.6
The level of expressed mRNA in the presence of chemical substance/The level of expressed mRNA in the absence of chemical substance (yeast gene YLL060C): 2.0
The level of expressed mRNA in the presence of chemical substance/The level of expressed mRNA in the absence of chemical substance (yeast gene YLR043C): 2.6
The level of expressed mRNA in the presence of chemical substance/The level of expressed mRNA in the absence of chemical substance (yeast gene YLR046C): 1.5
The level of expressed mRNA in the presence of chemical substance/The level of expressed mRNA in the absence of chemical substance (yeast gene YML028W): 0.8
The level of expressed mRNA in the presence of chemical substance/The level of expressed mRNA in the absence of chemical substance (yeast gene YML116W): 1.4
The level of expressed mRNA in the presence of chemical substance/The level of expressed mRNA in the absence of chemical substance (yeast gene YMR015C): 0.4
The level of expressed mRNA in the presence of chemical substance/The level of expressed mRNA in the absence of chemical substance (yeast gene YMR038C): 1.1
The level of expressed mRNA in the presence of chemical substance/The level of expressed mRNA in the absence of chemical substance (yeast gene YNL239W): 2.1
The level of expressed mRNA in the presence of chemical substance/The level of expressed mRNA in the absence of chemical substance (yeast gene YNL241C): 3.2
The level of expressed mRNA in the presence of chemical substance/The level of expressed mRNA in the absence of chemical substance (yeast gene YNL259C): 3.8
The level of expressed mRNA in the presence of chemical substance/The level of expressed mRNA in the absence of chemical substance (yeast gene YOL158C): 1.6
The level of expressed mRNA in the presence of chemical substance/The level of expressed mRNA in the absence of chemical substance (yeast gene YOR031W): 1.3
The level of expressed mRNA in the presence of chemical substance/The level of expressed mRNA in the absence of chemical substance (yeast gene YOR153W): 2.6
The level of expressed mRNA in the presence of chemical substance/The level of expressed mRNA in the absence of chemical substance (yeast gene YOR247W): 0.5
The level of expressed mRNA in the presence of chemical substance/The level of expressed mRNA in the absence of chemical substance (yeast gene YOR251C): 1.0
The level of expressed mRNA in the presence of chemical substance/The level of expressed mRNA in the absence of chemical substance (yeast gene YOR273C): 0.4
The level of expressed mRNA in the presence of chemical substance/The level of expressed mRNA in the absence of chemical substance (yeast gene YPL163C): 0.4
The level of expressed mRNA in the presence of chemical substance/The level of expressed mRNA in the absence of chemical substance (yeast gene YPR200C): 1.3
